Measurements taken from ChEMBL document CHEMBL3885881, “DrugMatrix”.

Species on record: Rattus norvegicus
Experiment: DrugMatrix - Regimen: Daily Repeat
Format: toxicity, organism-based, Sprague-Dawley
Set-up: regimen Daily Repeat, gender Male, age 6-8 weeks
Conditions: in vivo, po, route oral GAVAGE, […]; for ABSOLUTE BASOPHIL / ABSOLUTE EOSINOPHIL / ABSOLUTE LYMPHOCYTE / ABSOLUTE MONOCYTE / ABSOLUTE SEGMENTED NEUTROPHIL / BASOPHIL / EOSINOPHIL / ERYTHROCYTE COUNT / HEMATOCRIT / HEMOGLOBIN / LEUKOCYTE COUNT / LYMPHOCYTE / MEAN CORPUSCULAR HEMOGLOBIN / MEAN CORPUSCULAR HEMOGLOBIN CONCENTRATION / MEAN CORPUSCULAR VOLUME / MONOCYTE / NEUTROPHIL / NUCLEATED RED BLOOD CELLS / PLATELET COUNT: tissue Blood; for ALANINE AMINOTRANSFERASE / ALBUMIN / ALKALINE PHOSPHATASE / ASPARTATE AMINOTRANSFERASE / BLOOD UREA NITROGEN / CARBON DIOXIDE / CHLORIDE / CHOLESTEROL / CREATINE PHOSPHOKINASE / CREATININE / GLUCOSE / LACTATE DEHYDROGENASE / LIPASE / PHOSPHORUS / POTASSIUM / SODIUM / TOTAL BILIRUBIN / TOTAL PROTEIN / URIC ACID: tissue Plasma
[1] = 0 mg/kg, 72 h, dose level Control, time 3 day
[2] = 0 mg/kg, 120 h, dose level Control, time 5 day
[3] = 0.05 mg/kg, 72 h, dose level Low, time 3 day

## COCc1c(C(C)C)nc(C(C)C)c(/C=C/[C@@H](O)C[C@@H](O)CC(=O)O)c1-c1ccc(F)cc1 [CERIVASTATIN]
[1]
  ABSOLUTE BASOPHIL: 0 CELLS/uL
  ABSOLUTE EOSINOPHIL: 0 CELLS/uL
  ABSOLUTE LYMPHOCYTE: 11091.17 CELLS/uL
  ABSOLUTE MONOCYTE: 172.17 CELLS/uL
  ABSOLUTE SEGMENTED NEUTROPHIL: 1186.67 CELLS/uL
  BASOPHIL: 0%
  EOSINOPHIL: 0%
  ERYTHROCYTE COUNT: 5.87 x10E6/uL
  HEMATOCRIT: 36.87%
  HEMOGLOBIN: 14.03 G/DL
  LEUKOCYTE COUNT: 12.45 x10E3/uL
  LYMPHOCYTE: 88.67%
  MEAN CORPUSCULAR HEMOGLOBIN: 23.93 pg
  MEAN CORPUSCULAR HEMOGLOBIN CONCENTRATION: 38.1 G/DL
  MEAN CORPUSCULAR VOLUME: 62.73 fL
  MONOCYTE: 1.5%
  NEUTROPHIL: 9.83%
  NUCLEATED RED BLOOD CELLS: 0 /100WBC
  PLATELET COUNT: 1150.33 x10E3/uL
  ALANINE AMINOTRANSFERASE: 67.17 u/L
  ALBUMIN: 4.03 G/DL
  ALKALINE PHOSPHATASE: 462.5 u/L
  ASPARTATE AMINOTRANSFERASE: 88 u/L
  BLOOD UREA NITROGEN: 13.17 mg/dL
  CARBON DIOXIDE: 29.33 mmol/L
  CHLORIDE: 101 MEQ/L
  CHOLESTEROL: 69.17 mg/dL
  CREATINE PHOSPHOKINASE: 292.5 u/L
  CREATININE: 0.17 mg/dL
  GLUCOSE: 167.5 mg/dL
  LACTATE DEHYDROGENASE: 198.5 u/L
  LIPASE: 10.67 u/L
  PHOSPHORUS: 11.73 mg/dL
  POTASSIUM: 5.91 MEQ/L
  SODIUM: 143.3 MEQ/L
  TOTAL BILIRUBIN: 0.18 mg/dL
  TOTAL PROTEIN: 5.7 G/DL
  URIC ACID: 1.3 mg/dL
[2]
  ABSOLUTE BASOPHIL: 0 CELLS/uL
  ABSOLUTE EOSINOPHIL: 64.33 CELLS/uL
  ABSOLUTE LYMPHOCYTE: 12494.67 CELLS/uL
  ABSOLUTE MONOCYTE: 117 CELLS/uL
  ABSOLUTE SEGMENTED NEUTROPHIL: 1340.67 CELLS/uL
  BASOPHIL: 0%
  EOSINOPHIL: 0.33%
  ERYTHROCYTE COUNT: 5.82 x10E6/uL
  HEMATOCRIT: 36.97%
  HEMOGLOBIN: 14.18 G/DL
  LEUKOCYTE COUNT: 14.02 x10E3/uL
  LYMPHOCYTE: 89%
  MEAN CORPUSCULAR HEMOGLOBIN: 24.42 pg
  MEAN CORPUSCULAR HEMOGLOBIN CONCENTRATION: 38.4 G/DL
  MEAN CORPUSCULAR VOLUME: 63.52 fL
  MONOCYTE: 0.83%
  NEUTROPHIL: 9.83%
  NUCLEATED RED BLOOD CELLS: 0 /100WBC
  PLATELET COUNT: 1097.83 x10E3/uL
  ALANINE AMINOTRANSFERASE: 58.83 u/L
  ALBUMIN: 3.92 G/DL
  ALKALINE PHOSPHATASE: 414.17 u/L
  ASPARTATE AMINOTRANSFERASE: 89.17 u/L
  BLOOD UREA NITROGEN: 16.83 mg/dL
  CARBON DIOXIDE: 29.17 mmol/L
  CHLORIDE: 100.33 MEQ/L
  CHOLESTEROL: 54.5 mg/dL
  CREATINE PHOSPHOKINASE: 386.17 u/L
  CREATININE: 0.23 mg/dL
  GLUCOSE: 184.17 mg/dL
  LACTATE DEHYDROGENASE: 229.17 u/L
  LIPASE: 10.83 u/L
  PHOSPHORUS: 10.88 mg/dL
  POTASSIUM: 5.97 MEQ/L
  SODIUM: 142.2 MEQ/L
  TOTAL BILIRUBIN: 0.12 mg/dL
  TOTAL PROTEIN: 5.63 G/DL
  URIC ACID: 1.55 mg/dL
[3]
  ABSOLUTE BASOPHIL: 0 CELLS/uL
  ABSOLUTE EOSINOPHIL: 0 CELLS/uL
  ABSOLUTE LYMPHOCYTE: 11310.33 CELLS/uL
  ABSOLUTE MONOCYTE: 175.33 CELLS/uL
  ABSOLUTE SEGMENTED NEUTROPHIL: 1347.67 CELLS/uL
  BASOPHIL: 0%
  EOSINOPHIL: 0%
  ERYTHROCYTE COUNT: 5.68 x10E6/uL
  HEMATOCRIT: 35.3%
  HEMOGLOBIN: 13.6 G/DL
  LEUKOCYTE COUNT: 12.83 x10E3/uL
  LYMPHOCYTE: 88.33%
  MEAN CORPUSCULAR HEMOGLOBIN: 23.97 pg
  MEAN CORPUSCULAR HEMOGLOBIN CONCENTRATION: 38.53 G/DL
  MEAN CORPUSCULAR VOLUME: 62.17 fL
  MONOCYTE: 1.33%
  NEUTROPHIL: 10.33%
  NUCLEATED RED BLOOD CELLS: 0 /100WBC
  PLATELET COUNT: 1230 x10E3/uL
  ALANINE AMINOTRANSFERASE: 65 u/L
  ALBUMIN: 4.07 G/DL
  ALKALINE PHOSPHATASE: 429 u/L
  ASPARTATE AMINOTRANSFERASE: 96.67 u/L
  BLOOD UREA NITROGEN: 15.67 mg/dL
  CARBON DIOXIDE: 25 mmol/L
  CHLORIDE: 103 MEQ/L
  CHOLESTEROL: 64 mg/dL
  CREATINE PHOSPHOKINASE: 269.33 u/L
  CREATININE: 0.13 mg/dL
  GLUCOSE: 169.67 mg/dL
  LACTATE DEHYDROGENASE: 270.33 u/L
  LIPASE: 10 u/L
  PHOSPHORUS: 12.17 mg/dL
  POTASSIUM: 6.2 MEQ/L
  SODIUM: 144.27 MEQ/L
  TOTAL BILIRUBIN: 0.13 mg/dL
  TOTAL PROTEIN: 5.63 G/DL
  URIC ACID: 1.9 mg/dL
